Source: patent publication US10005762B2, “Pyridine derivatives” (Astellas Pharma Inc., priority 2014, dated 2018)
Marks after values point to notes of the source that are not given here. Each block holds one molecule with its values, some of them ahead of it.

Legend:
IRAP = IRAP (Rattus norvegicus (Rat), UniProt P97629); assay: Inhibition of IRAP activity (AVP degradation, rat epididymal fat pad microsomes, MALDI-MS); conditions: read-out: IRAP IC50, AVP 25 μM, 1 h at 37° C.
Method: (1) Inhibition of IRAP Activity
Residual AVP was then determined by mass spectrometry (MALDI-MS).

water-loaded rats = assay: Antidiuresis test in water-loaded rats (oral administration); type: in vivo, rat; conditions: water load 30 ml/kg 1 h after dosing, urine volume 1 h after water loading, vs vehicle control
Method: When a test compound is a free base, one molar equivalent hydrochloric acid was added to dissolve the compound in the solvent. Rats in a vehicle control group were administered only with the vehicle. One hour after the administration, 30 ml/kg of distilled water was orally administered to the rats. One hour after the water loading, the urine volume was measured (urine volumes less than 0.3 ml were considered as 0 ml) to calculate the ratio of the urine volume (urinary excretion rate) to the amount of water load.

Chain of IRAP (P97629 whole entry): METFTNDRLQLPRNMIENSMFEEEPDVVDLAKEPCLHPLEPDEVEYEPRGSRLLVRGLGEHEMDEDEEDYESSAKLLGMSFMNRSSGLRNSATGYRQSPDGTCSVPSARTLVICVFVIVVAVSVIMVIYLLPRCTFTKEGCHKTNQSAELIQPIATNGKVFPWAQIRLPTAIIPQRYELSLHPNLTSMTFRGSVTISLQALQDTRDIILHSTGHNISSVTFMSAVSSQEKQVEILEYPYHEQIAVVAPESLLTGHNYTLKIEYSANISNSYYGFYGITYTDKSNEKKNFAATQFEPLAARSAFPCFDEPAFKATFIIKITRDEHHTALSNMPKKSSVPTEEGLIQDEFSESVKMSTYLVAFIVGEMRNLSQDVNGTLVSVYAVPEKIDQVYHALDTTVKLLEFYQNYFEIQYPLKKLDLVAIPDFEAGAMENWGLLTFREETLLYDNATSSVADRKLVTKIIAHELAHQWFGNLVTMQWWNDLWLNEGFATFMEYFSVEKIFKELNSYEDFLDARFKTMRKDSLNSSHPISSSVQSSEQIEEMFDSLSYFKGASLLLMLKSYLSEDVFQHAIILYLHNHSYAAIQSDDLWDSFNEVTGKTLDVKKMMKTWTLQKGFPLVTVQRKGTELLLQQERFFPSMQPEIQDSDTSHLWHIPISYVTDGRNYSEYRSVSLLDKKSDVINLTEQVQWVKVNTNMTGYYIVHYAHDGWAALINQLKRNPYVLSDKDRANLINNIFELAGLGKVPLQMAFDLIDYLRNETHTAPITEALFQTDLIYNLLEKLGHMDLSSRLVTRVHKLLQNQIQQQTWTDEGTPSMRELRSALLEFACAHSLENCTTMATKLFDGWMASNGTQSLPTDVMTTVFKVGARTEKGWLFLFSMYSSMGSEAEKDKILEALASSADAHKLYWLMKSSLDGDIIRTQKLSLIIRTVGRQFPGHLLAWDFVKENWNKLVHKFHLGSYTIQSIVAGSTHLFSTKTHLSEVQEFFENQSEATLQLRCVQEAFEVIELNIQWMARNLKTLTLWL

IC50 (IRAP): 220 nM
Structure (SMILES): CC(C)C[C@H](N)[C@](O)(Cc1nccc2c1CCC1(CCCC1)C2)C(=O)O [Example 19]

Structure (SMILES): Cc1cnc(C[C@](O)(C(=O)O)[C@@H](N)COCCC2CC2)cc1CCCC1CC1 [Example 25]
Inhibition of urination (%) (water-loaded rats; 3 mg/kg oral): 88%

Structure (SMILES): N[C@@H](CCC1CC1)[C@](O)(Cc1cc(CCCC2CC2)ccn1)C(=O)O [Example 40]
Inhibition of urination (%) (water-loaded rats; 3 mg/kg oral): 100%

Structure (SMILES): CSC[C@H](N)[C@](O)(Cc1nccc2c1C[C@H](CCC1CC1)C2)C(=O)O [Example 41]
Inhibition of urination (%) (water-loaded rats; 1 mg/kg oral (values marked *)): 69* %

Structure (SMILES): CCCSC[C@H](N)[C@](O)(Cc1nccc2c1C[C@H](CCC1CC1)C2)C(=O)O [Example 42]
Inhibition of urination (%) (water-loaded rats; 1 mg/kg oral (values marked *)): 81* %

Structure (SMILES): CSC[C@H](N)[C@](O)(Cc1nccc2c1C[C@@H](CCC1CC1)C2)C(=O)O [Example 44]
Inhibition of urination (%) (water-loaded rats; 1 mg/kg oral (values marked *)): 51* %

Structure (SMILES): CC(C)C[C@H](N)[C@](O)(Cc1nccc2c1C[C@H](CCC1CC1)C2)C(=O)O [Example 52]
Inhibition of urination (%) (water-loaded rats; 3 mg/kg oral): 90%

IC50 (IRAP): 130 nM
Structure (SMILES): COc1ccc(-c2ccnc(C[C@](O)(C(=O)O)[C@@H](N)CC(C)C)c2)cc1 [Example 57]

IC50 (IRAP): 110 nM
Structure (SMILES): CC(C)C[C@H](N)[C@](O)(Cc1cc(C2=CCOCC2)ccn1)C(=O)O [Example 59]

IC50 (IRAP): 160 nM
Structure (SMILES): CC(C)C[C@H](N)[C@](O)(Cc1cc(C2CCOCC2)ccn1)C(=O)O [Example 78]

IC50 (IRAP): 130 nM
Structure (SMILES): CC(C)C[C@H](N)[C@](O)(Cc1nccc2c1CCC(OCc1ccccc1)C2)C(=O)O (some centres unmarked) [Example 80]
